Test results as given in ChEMBL document CHEMBL4325853, “Design, synthesis and antibacterial evaluation of 2,4-disubstituted-6-thiophenyl-pyrimidines” (Eur J Med Chem, 2019).
Converted amounts (≈) assume the structure as drawn. The source made the active and inactive calls. The calls are words filed in the database; no cut-off is given here.

Tests used:
[1] = test system: Staphylococcus aureus; experiment: Antibacterial activity against methicillin-resistant Staphylococcus aureus ATCC 33591 after 18 hrs by broth microdilution method; format: functional; conditions: ATCC 33591, 18 h
[2] = test system: Staphylococcus aureus; experiment: Antibacterial activity against methicillin-resistant Staphylococcus aureus isolate 8078 after 18 hrs by broth microdilution method; format: functional; conditions: isolate 8078, 18 h
[3] = test system: Staphylococcus aureus; experiment: Antibacterial activity against methicillin-resistant Staphylococcus aureus isolate 7813 after 18 hrs by broth microdilution method; format: functional; conditions: isolate 7813, 18 h
[4] = test system: Staphylococcus aureus; experiment: Antibacterial activity against methicillin-resistant Staphylococcus aureus isolate 7434 after 18 hrs by broth microdilution method; format: functional; conditions: isolate 7434, 18 h
[5] = test system: Staphylococcus aureus; experiment: Antibacterial activity against methicillin-resistant Staphylococcus aureus isolate 7863 after 18 hrs by broth microdilution method; format: functional; conditions: isolate 7863, 18 h
[6] = test system: Staphylococcus aureus; experiment: Antibacterial activity against methicillin-resistant Staphylococcus aureus isolate 2350 after 18 hrs by broth microdilution method; format: functional; conditions: isolate 2350, 18 h
[7] = test system: Staphylococcus aureus; experiment: Antibacterial activity against methicillin-resistant Staphylococcus aureus isolate 7536 after 18 hrs by broth microdilution method; format: functional; conditions: isolate 7536, 18 h
[8] = test system: Staphylococcus aureus; experiment: Antibacterial activity against Staphylococcus aureus ATCC 29213 after 18 hrs by broth microdilution method; format: functional; conditions: ATCC 29213, 18 h
[9] = test system: Staphylococcus aureus; experiment: Antibacterial activity against methicillin-resistant Staphylococcus aureus isolate 5395 after 18 hrs by broth microdilution method; format: functional; conditions: isolate 5395, 18 h
[10] = test system: Bacillus subtilis; experiment: Antibacterial activity against Bacillus subtilis 168 after 18 hrs by broth microdilution method; format: functional; conditions: subsp. subtilis str. 168, 18 h
[11] = test system: Staphylococcus aureus; experiment: Antibacterial activity against methicillin-resistant Staphylococcus aureus isolate 8179 after 18 hrs by broth microdilution method; format: functional; conditions: isolate 8179, 18 h
[12] = test system: Staphylococcus aureus; experiment: Antibacterial activity against methicillin-resistant Staphylococcus aureus isolate 5426 after 18 hrs by broth microdilution method; format: functional; conditions: isolate 5426, 18 h
[13] = test system: Staphylococcus aureus; experiment: Antibacterial activity against methicillin-resistant Staphylococcus aureus isolate 7717 after 18 hrs by broth microdilution method; format: functional; conditions: isolate 7717, 18 h
[14] = test system: Staphylococcus aureus; experiment: Antibacterial activity against methicillin-resistant Staphylococcus aureus isolate 1428 after 18 hrs by broth microdilution method; format: functional; conditions: isolate 1428, 18 h
[15] = test system: Staphylococcus aureus; experiment: Antibacterial activity against methicillin-resistant Staphylococcus aureus isolate 7960 after 18 hrs by broth microdilution method; format: functional; conditions: isolate 7960, 18 h
[16] = test system: Escherichia coli; experiment: Antibacterial activity against Escherichia coli ATCC 25922 after 18 hrs by broth microdilution method; format: functional; conditions: ATCC 25922, 18 h
[17] = test system: Enterococcus faecalis; experiment: Antibacterial activity against vancomycin-resistant Enterococcus faecalis ATCC 700221 after 18 hrs by broth microdilution method; format: functional; conditions: ATCC 700221, 18 h
[18] = test system: Staphylococcus aureus; experiment: Antibacterial activity against methicillin-resistant Staphylococcus aureus isolate 3170 after 18 hrs by broth microdilution method; format: functional; conditions: isolate 3170, 18 h
[19] = test system: Staphylococcus aureus; experiment: Antibacterial activity against methicillin-resistant Staphylococcus aureus isolate 8162 after 18 hrs by broth microdilution method; format: functional; conditions: isolate 8162, 18 h
[20] = test system: Staphylococcus aureus; experiment: Antibacterial activity against methicillin-resistant Staphylococcus aureus isolate 4023 after 18 hrs by broth microdilution method; format: functional; conditions: isolate 4023, 18 h
[21] = test system: Staphylococcus aureus; experiment: Antibacterial activity against methicillin-resistant Staphylococcus aureus isolate 5239 after 18 hrs by broth microdilution method; format: functional; conditions: isolate 5239, 18 h
[22] = biological target: T1, Cell division protein FtsZ (Staphylococcus aureus) (UniProt P0A031); experiment: Inhibition of recombinant Staphylococcus aureus FtsZ polymerization at 8 ug/ml by 90 degree light scattering-based fluorescence spectrometric analysis
T1 sequence (whole entry): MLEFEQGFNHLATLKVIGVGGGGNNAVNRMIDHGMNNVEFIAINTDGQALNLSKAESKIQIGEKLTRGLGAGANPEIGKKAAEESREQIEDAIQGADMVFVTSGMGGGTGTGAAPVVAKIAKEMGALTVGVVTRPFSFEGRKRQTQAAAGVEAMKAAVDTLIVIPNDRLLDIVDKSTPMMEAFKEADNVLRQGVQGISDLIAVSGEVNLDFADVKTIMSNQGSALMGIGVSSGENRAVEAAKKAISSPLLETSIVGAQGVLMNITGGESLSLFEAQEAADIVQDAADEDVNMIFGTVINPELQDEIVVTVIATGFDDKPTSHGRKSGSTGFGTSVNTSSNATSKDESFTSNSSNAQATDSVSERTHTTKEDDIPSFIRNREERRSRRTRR

[23] = test system: Staphylococcus aureus; experiment: Antibacterial activity against methicillin-resistant Staphylococcus aureus ATCC BAA41 after 18 hrs by broth microdilution method; format: functional; conditions: ATCC BAA41, 18 h
[24] = test system: Staphylococcus aureus; experiment: Antibacterial activity against methicillin-resistant Staphylococcus aureus isolate 7183 after 18 hrs by broth microdilution method; format: functional; conditions: isolate 7183, 18 h
[25] = test system: Staphylococcus epidermidis; experiment: Antibacterial activity against Staphylococcus epidermidis ATCC 12228 after 18 hrs by broth microdilution method; format: functional; conditions: ATCC 12228, 18 h
[26] = test system: Staphylococcus aureus; experiment: Antibacterial activity against methicillin-resistant Staphylococcus aureus isolate 2158 after 18 hrs by broth microdilution method; format: functional; conditions: isolate 2158, 18 h
[27] = test system: Enterococcus faecalis; experiment: Potency index, ratio of berberine MIC to test compound MIC for Enterococcus faecalis ATCC 29212; format: functional
[28] = test system: Staphylococcus aureus; experiment: Ratio of MBC to MIC for methicillin-resistant Staphylococcus aureus ATCC BAA41; format: functional
[29] = test system: Staphylococcus aureus; experiment: Ratio of MBC to MIC for methicillin-resistant Staphylococcus aureus ATCC 43300; format: functional
[30] = test system: Staphylococcus aureus; experiment: Potency index, ratio of methicillin MIC to test compound MIC for methicillin-resistant Staphylococcus aureus ATCC 43300; format: functional
[31] = test system: Staphylococcus aureus; experiment: Bactericidal activity against methicillin-resistant Staphylococcus aureus ATCC 43300 after 18 hrs by broth microdilution method; format: functional; conditions: ATCC 43300, 18 h
[32] = test system: Enterococcus faecalis; experiment: Bactericidal activity against vancomycin-resistant Enterococcus faecalis ATCC 700221 after 18 hrs by broth microdilution method; format: functional; conditions: ATCC 700221, 18 h

| Compound | MIC90 [1] | MIC90 [2] | MIC90 [3] | MIC90 [4] | MIC90 [5] | MIC90 [6] | MIC90 [7] | MIC90 [8] | MIC90 [9] | MIC90 [10] | MIC90 [11] | MIC90 [12] | MIC90 [13] | MIC90 [14] | MIC90 [15] | MIC90 [16] | MIC90 [17] | MIC90 [18] | MIC90 [19] | MIC90 [20] | also measured |
| --- | --- | --- | --- | --- | --- | --- | --- | --- | --- | --- | --- | --- | --- | --- | --- | --- | --- | --- | --- | --- | --- |
| COc1cccc(OC)c1C(=O)N[C@@H]1C(=O)N2[C@@H]1SC(C)(C)[C@@H]2C(=O)O [METHICILLIN] | > 192 µg/mL | > 64 µg/mL | > 64 µg/mL | > 64 µg/mL | > 64 µg/mL | > 64 µg/mL | > 64 µg/mL | 1 µg/mL (≈ 2.63 µM) | > 64 µg/mL | 0.5 µg/mL (≈ 1.31 µM) | > 64 µg/mL | > 64 µg/mL | > 64 µg/mL | > 64 µg/mL | > 64 µg/mL | 4 µg/mL (≈ 10.5 µM) | 6 µg/mL (≈ 15.8 µM) | > 64 µg/mL | > 64 µg/mL | > 64 µg/mL | MIC90 [21]: > 64 µg/mL; inhibition [22]: inactive; MIC90 [23]: > 192 µg/mL; MIC90 [24]: > 64 µg/mL; MIC90 [25]: 0.5 µg/mL (≈ 1.31 µM); MIC90 [26]: > 64 µg/mL |
| FC(F)(F)c1ccc(CN2CCCN(CCc3cc(-c4cccs4)nc(-c4ccncc4)n3)CC2)cc1 | 4 µg/mL (≈ 7.64 µM) | 4 µg/mL (≈ 7.64 µM) | 8 µg/mL (≈ 15.3 µM) | 8 µg/mL (≈ 15.3 µM) | 4 µg/mL (≈ 7.64 µM) | 4 µg/mL (≈ 7.64 µM) | 4 µg/mL (≈ 7.64 µM) | 4 µg/mL (≈ 7.64 µM) | 4 µg/mL (≈ 7.64 µM) | 4 µg/mL (≈ 7.64 µM) | 4 µg/mL (≈ 7.64 µM) | 8 µg/mL (≈ 15.3 µM) | 4 µg/mL (≈ 7.64 µM) | 4 µg/mL (≈ 7.64 µM) | 4 µg/mL (≈ 7.64 µM) | 128 µg/mL (≈ 244 µM) | 4 µg/mL (≈ 7.64 µM) | 8 µg/mL (≈ 15.3 µM) | 4 µg/mL (≈ 7.64 µM) | 4 µg/mL (≈ 7.64 µM) | Ratio [27]: 50 - 100; Ratio [28]: 1; Ratio [29]: 2; Ratio [30]: >100; MIC90 [21]: 4 µg/mL (≈ 7.64 µM); MBC [31]: 8 µg/mL (≈ 15.3 µM); MIC90 [23]: 4 µg/mL (≈ 7.64 µM); MIC90 [24]: 4 µg/mL (≈ 7.64 µM); MIC90 [25]: 4 µg/mL (≈ 7.64 µM); MIC90 [26]: 4 µg/mL (≈ 7.64 µM); MBC [32]: 8 µg/mL (≈ 15.3 µM) |
